US12168012B2, “NLRP3 inflammasome inhibitors” (Novartis AG, priority 2018, dated 2024)

Tests used:
[1] = system: NF-kB-dependent TNF-α secretion; assay: TNF-α secretion assay (counterscreen); format: cell-based; conditions: Homo sapiens; THP-1 cells, Pam3CSK4-stimulated, 3 hours, HTRF
How it was run: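 Undifferentiated THP-1 cells, rested overnight, given compound then stimulated with 1 μg/mL LPS or 100 ng/mL Pam3CSK4 for 3 hours. Supernatant TNF-α measured by HTRF; IC50 from four-parameter logistic fit of % inhibition versus concentration, with viability monitored.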

NLRP3 inflammasome = assay: IL-1β secretion assay; format: cell-based; conditions: PMA-differentiated THP-1 cells, 15 μM nigericin, HTRF
How it was run: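 PMA-differentiated THP-1 cells stimulated with nigericin to trigger NLRP3-dependent IL-1β secretion, measured by HTRF after 3 h. Viability/pyroptosis monitored with PrestoBlue. IC50 from logistic fit of % inhibition vs concentration with Hill coefficient.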

Row | SMILES | IC50 [1] [nM] | IC50 (NLRP3 inflammasome; Homo sapiens, THP-1, 3 h) [nM] | IC50 (NLRP3 inflammasome; 3 hours) [nM]
1 | CC(C)c1nn(CC(=O)N[C@H]2CC[C@@H](C(=O)O)CC2)c(=O)c2cc3sc(Cl)cc3n12 [Ex 54, (1s,4s)-4-(2-(2-Chloro-5-isopropyl-8-oxothieno[2′,3′:4,5]pyrrolo[1,2-d][1,2,4]triazin-7(8H)-yl)acetamido)cyclohexane-1-carboxylic acid] | > 100000 | 562 | –
2 | CC(C)c1nn(CC(=O)N[C@@H]2CCC[C@@](C)(O)C2)c(=O)c2cc3sc(Cl)cc3n12 [Ex 27, 2-(2-Chloro-5-isopropyl-8-oxothieno[2′,3′:4,5]pyrrolo[1,2-d][1,2,4]triazin-7(8H)-yl)-N-((1R,3R)-3-hydroxy-3-methylcyclohexyl)acetamide] | > 100000 | 18 | –
3 | CC(C)c1nn(CC(=O)N[C@@H]2CCCN(CCF)C2)c(=O)c2cc3scnc3n12 [Ex 89, (R)-N-(1-(2-Fluoroethyl)piperidin-3-yl)-2-(5-isopropyl-8-oxothiazolo[5′,4′:4,5]pyrrolo[1,2-d][1,2,4]triazin-7(8H)-yl)acetamide] | > 100000 | 24.8 | –
4 | CC(C)c1nn(CC(=O)NC2(CO)CC2)c(=O)c2cc3sc(Cl)cc3n12 [Ex 111, 2-(2-Chloro-5-isopropyl-8-oxothieno[2′,3′:4,5]pyrrolo[1,2-d][1,2,4]triazin-7(8H)-yl)-N-(1-(hydroxymethyl)cyclopropyl)acetamide] | > 100000 | 111 | –
5 | O=C(Cn1nc(C2CC2)n2c(cc3scnc32)c1=O)Nc1cccnc1 [Ex 4, 2-(5-Cyclopropyl-8-oxothiazolo[5′,4′:4,5]pyrrolo[1,2-d][1,2,4]triazin-7(8H)-yl)-N-(pyridin-3-yl)acetamide] | > 100000 | 220 | –
6 | CC(C)c1nn(CC(=O)N[C@@H]2CCC[C@@](C)(O)C2)c(=O)c2cc3scnc3n12 [Ex 90, N-((1R,3R)-3-Hydroxy-3-methylcyclohexyl)-2-(5-isopropyl-8-oxothiazolo[5′,4′:4,5]pyrrolo[1,2-d][1,2,4]triazin-7(8H)-yl)acetamide] | > 100000 | 60.8 | –
7 | CC(C)c1nn(CC(=O)N[C@@H]2CCOC2)c(=O)c2cc3sc(Cl)cc3n12 [Ex 100, (R)-2-(2-Chloro-5-isopropyl-8-oxothieno[2′,3′:4,5]pyrrolo[1,2-d][1,2,4]triazin-7(8H)-yl)-N-(tetrahydrofuran-3-yl)acetamide] | > 100000 | 182 | –
8 | CC(C)c1nn(CC(=O)Nc2ccncn2)c(=O)c2cc3sc(F)cc3n12 [Ex 6, 2-(2-Fluoro-5-isopropyl-8-oxothieno[2′,3′:4,5]pyrrolo[1,2-d][1,2,4]triazin-7(8H)-yl)-N-(pyrimidin-4-yl)acetamide] | > 100000 | 6.5 | –
9 | CC(C)(O)c1nn(CC(=O)N[C@@H]2CCC[C@@H](O)C2)c(=O)c2cc3sc(Cl)cc3n12 [Ex 64, 2-(2-Chloro-5-(2-hydroxypropan-2-yl)-8-oxothieno[2′,3′:4,5]pyrrolo[1,2-d][1,2,4]triazin-7(8H)-yl)-N-((1R,3R)-3-hydroxycyclohexyl)acetamide] | > 100000 | 3.4 | –
10 | CC(C)c1nn(CC(=O)N[C@@H]2CCCN(CCO)C2)c(=O)c2cc3sc(Cl)cc3n12 [Ex 133, (R)-2-(2-Chloro-5-isopropyl-8-oxothieno[2′,3′:4,5]pyrrolo[1,2-d][1,2,4]triazin-7(8H)-yl)-N-(1-(2-hydroxyethyl)piperidin-3-yl)acetamide] | > 100000 | 20.5 | –
11 | CC(C)c1nn(CC(=O)N[C@@H]2CCCN(CCF)C2)c(=O)c2cc3sc(Cl)cc3n12 [Ex 28, (R)-2-(2-Chloro-5-isopropyl-8-oxothieno[2′,3′:4,5]pyrrolo[1,2-d][1,2,4]triazin-7(8H)-yl)-N-(1-(2-fluoroethyl)piperidin-3-yl)acetamide] | > 100000 | 13.3 | –
12 | CC(C)c1nn(CC(=O)N[C@@H]2CCCN(CC(C)(C)O)C2)c(=O)c2cc3sc(Cl)cc3n12 [Ex 130, (R)-2-(2-Chloro-5-isopropyl-8-oxothieno[2′,3′:4,5]pyrrolo[1,2-d][1,2,4]triazin-7(8H)-yl)-N-(1-(2-hydroxy-2-methylpropyl)piperidin-3-yl)acetamide] | > 100000 | 20.4 | –
13 | Cc1nc2c(cc3c(=O)n(CC(=O)N[C@@H]4CCCNC4)nc(C(C)C)n32)s1 [Ex 50, (R)-2-(5-Isopropyl-2-methyl-8-oxothiazolo[5′,4′:4,5]pyrrolo[1,2-d][1,2,4]triazin-7(8H)-yl)-N-(piperidin-3-yl)acetamide] | > 100000 | 108 | –
14 | CC(O)c1nn(CC(=O)Nc2ccncn2)c(=O)c2cc3sc(Cl)cc3n12 (centres unmarked) [Ex 3, 2-(2-Chloro-5-(1-hydroxyethyl)-8-oxothieno[2′,3′:4,5]pyrrolo[1,2-d][1,2,4]triazin-7(8H)-yl)-N-(pyrimidin-4-yl)acetamide] | > 100000 | 228 | –
15 | CC(C)c1nn(CC(=O)NC[C@@H](C)O)c(=O)c2cc3sc(Cl)cc3n12 [Ex 70, (R)-2-(2-Chloro-5-isopropyl-8-oxothieno[2′,3′:4,5]pyrrolo[1,2-d][1,2,4]triazin-7(8H)-yl)-N-(2-hydroxypropyl)acetamide] | > 100000 | 34.9 | –
16 | CC(C)c1nn(CC(=O)N[C@@H]2CCC[C@H](O)C2)c(=O)c2cc3scnc3n12 [Ex 91, N-((1R,3S)-3-Hydroxycyclohexyl)-2-(5-isopropyl-8-oxothiazolo[5′,4′:4,5]pyrrolo[1,2-d][1,2,4]triazin-7(8H)-yl)acetamide] | > 100000 | 1.9 | –
17 | CC(C)(O)c1nn(CC(=O)NC2CC3(COC3)C2)c(=O)c2cc3sc(Cl)cc3n12 [Ex 26, 2-(2-Chloro-5-(2-hydroxypropan-2-yl)-8-oxothieno[2′,3′:4,5]pyrrolo[1,2-d][1,2,4]triazin-7(8H)-yl)-N-(2-oxaspiro[3.3]heptan-6-yl)acetamide] | > 100000 | 46.4 | –
18 | CN1C[C@H](NC(=O)Cn2nc(C(C)(C)O)n3c(cc4sc(Cl)cc43)c2=O)CCC1=O [Ex 29, (R)-2-(2-Chloro-5-(2-hydroxypropan-2-yl)-8-oxothieno[2′,3′:4,5]pyrrolo[1,2-d][1,2,4]triazin-7(8H)-yl)-N-(1-methyl-6-oxopiperidin-3-yl)acetamide] | > 100000 | 35.7 | –
19 | Cc1cc2c(cc3c(=O)n(CC(=O)Nc4cccnc4)nc(C(C)C)n32)s1 [Ex 7, 2-(5-Isopropyl-2-methyl-8-oxothieno[2′,3′:4,5]pyrrolo[1,2-d][1,2,4]triazin-7(8H)-yl)-N-(pyridin-3-yl)acetamide] | > 100000 | 254 | –
20 | CC(C)c1nn(CC(=O)N[C@@H]2CCCN(CC3CC3)C2)c(=O)c2cc3sc(Cl)cc3n12 [Ex 134, (R)-2-(2-Chloro-5-isopropyl-8-oxothieno[2′,3′:4,5]pyrrolo[1,2-d][1,2,4]triazin-7(8H)-yl)-N-(1-(cyclopropylmethyl)piperidin-3-yl)acetamide] | > 100000 | 0.7 | –
21 | CC(C)c1nn(CC(=O)NC2CC3(COC3)C2)c(=O)c2cc3sc(Cl)cc3n12 [Ex 24, 2-(2-Chloro-5-isopropyl-8-oxothieno[2′,3′:4,5]pyrrolo[1,2-d][1,2,4]triazin-7(8H)-yl)-N-(2-oxaspiro[3.3]heptan-6-yl)acetamide] | > 100000 | 39.5 | –
22 | CC(C)c1nn(CC(=O)NC23CC(N)(C2)C3)c(=O)c2cc3sc(Cl)cc3n12 [Ex 115, N-(3-Aminobicyclo[1.1.1]pentan-1-yl)-2-(2-chloro-5-isopropyl-8-oxothieno[2′,3′:4,5]pyrrolo[1,2-d][1,2,4]triazin-7(8H)-yl)acetamide] | > 100000 | 172 | –
23 | CC(C)c1nn(CC(=O)NC[C@H](C)O)c(=O)c2cc3sc(Cl)cc3n12 [Ex 69, (S)-2-(2-Chloro-5-isopropyl-8-oxothieno[2′,3′:4,5]pyrrolo[1,2-d][1,2,4]triazin-7(8H)-yl)-N-(2-hydroxypropyl)acetamide] | > 100000 | 58.8 | –
24 | Cc1cc2c(cc3c(=O)n(CC(=O)N[C@@H]4CCCN(C)C4)nc(C(C)C)n32)s1 [Ex 40, (R)-2-(5-Isopropyl-2-methyl-8-oxothieno[2′,3′:4,5]pyrrolo[1,2-d][1,2,4]triazin-7(8H)-yl)-N-(1-methylpiperidin-3-yl)acetamide] | > 100000 | 56.3 | –
25 | CC(C)c1nn(CC(=O)N[C@@H]2CCC(=O)N(C)C2)c(=O)c2cc3scnc3n12 [Ex 49, (R)-2-(5-Isopropyl-8-oxothiazolo[5′,4′:4,5]pyrrolo[1,2-d][1,2,4]triazin-7(8H)-yl)-N-(1-methyl-6-oxopiperidin-3-yl)acetamide] | > 100000 | – | 26.4
26 | CC(C)c1nn(CC(=O)N[C@@H]2CCC(=O)NC2)c(=O)c2cc3scnc3n12 [Ex 46, (R)-2-(5-Isopropyl-8-oxothiazolo[5′,4′:4,5]pyrrolo[1,2-d][1,2,4]triazin-7(8H)-yl)-N-(6-oxopiperidin-3-yl)acetamide] | > 100000 | 50.8 | –
27 | CC(C)(O)c1nn(CC(=O)Nc2cccnc2)c(=O)c2cc3sc(Cl)cc3n12 [Ex 8, 2-(2-Chloro-5-(2-hydroxypropan-2-yl)-8-oxothieno[2′,3′:4,5]pyrrolo[1,2-d][1,2,4]triazin-7(8H)-yl)-N-(pyridin-3-yl)acetamide] | > 100000 | 87.4 | –
28 | CC(C)(O)c1nn(CC(=O)N[C@@H]2CCC[C@@](C)(O)C2)c(=O)c2cc3sc(Cl)cc3n12 [Ex 83, 2-(2-Chloro-5-(2-hydroxypropan-2-yl)-8-oxothieno[2′,3′:4,5]pyrrolo[1,2-d][1,2,4]triazin-7(8H)-yl)-N-((1R,3R)-3-hydroxy-3-methylcyclohexyl)acetamide] | > 100000 | 16.2 | –
